Laboratory results: patent US6964780B1, “Controlled-release pharmaceutical formulations” (Pfizer Inc., priority 1998, dated 2005)
Counter-ions that a name gives are not always drawn.

Assay: solubility of sildenafil citrate as a function of pH
Format: physicochemical
Conditions: at pH values greater than 6
Excerpt: Matrix formulations according to the present invention may contain a buffering agent. This is particularly useful when the formulation contains sildenafil citrate. A buffering agent of particular interest is aspartic acid. When it forms part of a matrix tablet, aspartic acid acts as a buffering agent to maintain a low pH at the surface of the tablet. […] When present, aspartic acid will typically make up 15–30% by weight of the formulation.

**Q.** Which solubility does the source give for `CCCc1nn(C)c2c(=O)[nH]c(-c3cc(S(=O)(=O)N4CCN(C)CC4)ccc3OCC)nc12` [sildenafil citrate, Sildenafil citrate] here?
**A.** low solubility
